The NIST ThermoML archive (doi:10.1016/j.jct.2016.09.041)
Values joined by “and” are separate entries in the source; they are usually repeats but may differ in a detail not shown here. Identical values can stand only once. ± gives the expanded uncertainty stated by the source.

Test: molar heat capacity at constant pressure
Conditions: 101.33 kPa, Small (less than 1 g) adiabatic calorimetry

N[C@@H](Cc1c[nH]c2ccccc12)C(=O)O [L-tryptophan]
molar heat capacity at constant pressure
Conditions	Crystal	Crystal 1
65.73 K	65.32 ± 0.61 J/K/mol	–
66.54 K	65.98 ± 0.61 J/K/mol	–
67.34 K	66.53 ± 0.62 J/K/mol	–
68.15 K	67.1 ± 0.62 J/K/mol	–
68.95 K	67.91 ± 0.62 J/K/mol	–
69.75 K	68.59 ± 0.63 J/K/mol	–
70 K	68.68 ± 0.58 J/K/mol	–
70.56 K	69.1 ± 0.64 J/K/mol	–
71.35 K	69.78 ± 0.64 J/K/mol	–
72.16 K	70.26 ± 0.65 J/K/mol	–
72.96 K	70.81 ± 0.65 J/K/mol	–
73.76 K	71.51 ± 0.66 J/K/mol	–
74.56 K	72.19 ± 0.66 J/K/mol and 72.19 ± 0.67 J/K/mol	–
75.36 K	72.76 ± 0.67 J/K/mol	–
76.16 K	73.55 ± 0.68 J/K/mol and 73.54 ± 0.67 J/K/mol	–
76.96 K	74.19 ± 0.68 J/K/mol	–
77.76 K	74.88 ± 0.86 J/K/mol and 74.88 ± 0.69 J/K/mol	–
77.81 K	74.18 ± 0.68 J/K/mol	–
77.91 K	74.86 ± 0.69 J/K/mol	–
77.92 K	74.32 ± 0.69 J/K/mol	–
78.27 K	74.94 ± 0.69 J/K/mol	–
78.42 K	75.32 ± 0.69 J/K/mol	–
78.45 K	75.01 ± 0.69 J/K/mol	–
78.56 K	75.5 ± 0.69 J/K/mol	–
78.82 K	75.44 ± 0.71 J/K/mol	–
78.84 K	74.99 ± 0.69 J/K/mol	–
78.87 K	75.62 ± 0.71 J/K/mol	–
79.2 K	75.99 ± 0.75 J/K/mol	71.01 ± 0.5 J/K/mol
79.22 K	75.33 ± 0.69 J/K/mol	–
79.24 K	75.75 ± 0.7 J/K/mol	–
79.33 K	76.02 ± 0.71 J/K/mol	–
79.36 K	76.16 ± 0.71 J/K/mol	–
79.37 K	76.15 ± 0.7 J/K/mol	–
79.62 K	–	70.64 ± 0.65 J/K/mol
79.64 K	–	70.29 ± 0.66 J/K/mol
79.68 K	–	70.63 ± 0.65 J/K/mol
80 K	–	71.09 ± 0.5 J/K/mol
80.02 K	–	71.26 ± 0.43 J/K/mol
80.04 K	–	70.54 ± 0.43 J/K/mol
80.14 K	–	70.97 ± 0.48 J/K/mol
80.17 K	–	71.35 ± 0.43 J/K/mol and 71.35 ± 0.57 J/K/mol
80.19 K	–	71.22 ± 0.43 J/K/mol
80.41 K	–	71.6 ± 0.43 J/K/mol
80.43 K	–	70.98 ± 0.5 J/K/mol
80.48 K	–	71.27 ± 0.5 J/K/mol
80.81 K	–	72.02 ± 0.44 J/K/mol
80.83 K	–	71.17 ± 0.43 J/K/mol
80.94 K	–	71.85 ± 0.49 J/K/mol
80.98 K	–	72.02 ± 0.43 J/K/mol and 72.02 ± 0.47 J/K/mol
80.99 K	–	72 ± 0.43 J/K/mol
81.21 K	–	72.51 ± 0.44 J/K/mol
81.23 K	–	71.92 ± 0.45 J/K/mol
81.28 K	–	72.06 ± 0.45 J/K/mol
81.61 K	–	72.57 ± 0.44 J/K/mol
81.63 K	–	72.55 ± 0.44 J/K/mol
81.74 K	–	72.46 ± 0.44 J/K/mol
81.79 K	–	72.78 ± 0.44 J/K/mol and 72.65 ± 0.44 J/K/mol and 72.78 ± 0.53 J/K/mol
82 K	–	72.93 ± 0.44 J/K/mol
82.02 K	–	72.8 ± 0.45 J/K/mol
82.08 K	–	72.96 ± 0.45 J/K/mol
82.42 K	–	73.44 ± 0.44 J/K/mol
82.55 K	–	73.18 ± 0.44 J/K/mol
82.59 K	–	73.58 ± 0.44 J/K/mol and 73.47 ± 0.44 J/K/mol and 73.58 ± 0.58 J/K/mol
82.82 K	–	73.8 ± 0.44 J/K/mol
82.88 K	–	73.57 ± 0.47 J/K/mol
83.22 K	–	74.06 ± 0.45 J/K/mol
83.35 K	–	74 ± 0.45 J/K/mol
83.4 K	–	74.08 ± 0.45 J/K/mol
83.68 K	–	74.24 ± 0.45 J/K/mol
84.15 K	–	74.8 ± 0.45 J/K/mol
84.2 K	–	74.77 ± 0.45 J/K/mol
84.49 K	–	74.98 ± 0.45 J/K/mol
84.95 K	–	75.46 ± 0.45 J/K/mol
85 K	–	75.41 ± 0.46 J/K/mol
85.29 K	–	75.62 ± 0.45 J/K/mol
85.8 K	–	76.16 ± 0.46 J/K/mol
86.6 K	–	77.02 ± 0.47 J/K/mol
87.4 K	–	77.55 ± 0.47 J/K/mol
88.21 K	–	78.21 ± 0.47 J/K/mol
89.01 K	–	78.75 ± 0.47 J/K/mol
89.81 K	–	79.34 ± 0.47 J/K/mol
90 K	–	79.57 ± 0.5 J/K/mol
90.61 K	–	80.12 ± 0.49 J/K/mol
91.41 K	–	80.65 ± 0.49 J/K/mol
92.22 K	–	81.07 ± 0.49 J/K/mol
93.02 K	–	81.81 ± 0.5 J/K/mol
93.82 K	–	82.48 ± 0.5 J/K/mol
94.62 K	–	83.08 ± 0.5 J/K/mol
95.43 K	–	83.56 ± 0.5 J/K/mol
96.23 K	–	84.06 ± 0.5 J/K/mol
97.03 K	–	84.89 ± 0.5 J/K/mol
97.83 K	–	85.56 ± 0.5 J/K/mol
98.64 K	–	86.05 ± 0.5 J/K/mol
99.44 K	–	86.39 ± 0.5 J/K/mol
100 K	–	86.89 ± 0.5 J/K/mol
100.24 K	–	86.97 ± 0.5 J/K/mol
101.04 K	–	87.55 ± 0.5 J/K/mol
101.84 K	–	88.13 ± 0.5 J/K/mol
102.65 K	–	88.72 ± 0.5 J/K/mol
103.45 K	–	89.38 ± 0.5 J/K/mol
104.25 K	–	89.71 ± 0.5 J/K/mol
105.05 K	–	90.38 ± 0.5 J/K/mol
105.85 K	–	91.04 ± 0.58 J/K/mol
106.65 K	–	91.46 ± 0.58 J/K/mol
107.45 K	–	91.87 ± 0.58 J/K/mol
108.25 K	–	92.54 ± 0.58 J/K/mol
109.05 K	–	93.12 ± 0.58 J/K/mol
109.85 K	–	93.62 ± 0.58 J/K/mol
110 K	–	93.7 ± 0.5 J/K/mol
110.66 K	–	94.2 ± 0.58 J/K/mol
111.46 K	–	94.78 ± 0.58 J/K/mol
112.26 K	–	95.2 ± 0.58 J/K/mol
113.06 K	–	95.87 ± 0.58 J/K/mol
113.86 K	–	96.36 ± 0.58 J/K/mol
114.66 K	–	96.61 ± 0.58 J/K/mol
115.47 K	–	97.36 ± 0.58 J/K/mol
116.27 K	–	97.7 ± 0.58 J/K/mol
117.07 K	–	98.61 ± 0.58 J/K/mol
117.87 K	–	99.11 ± 0.58 J/K/mol
118.67 K	–	99.69 ± 0.58 J/K/mol
119.47 K	–	100.27 ± 0.58 J/K/mol
120 K	–	100.44 ± 0.58 J/K/mol
120.28 K	–	100.85 ± 0.58 J/K/mol
121.08 K	–	101.19 ± 0.58 J/K/mol
121.88 K	–	101.85 ± 0.58 J/K/mol
122.68 K	–	102.27 ± 0.58 J/K/mol
123.49 K	–	102.77 ± 0.58 J/K/mol
